Peptide text beside a SMILES is read from it.
Tests used:
[1] = Interspecies extrapolation of the toxicological results to humans; settings: interspecies extrapolation from the toxicological test results
Method: The toxicological test results conclude that in humans, considering interspecies extrapolation, CP-88 can be practically safe with a single and course administration in doses of up to 100 μg/kg. In the first phase of clinical trials, it is advisable to test the drug for tolerability, starting with a dose of 1 μg/kg. The dose can be increased to 10 μg/kg daily with no adverse reactions detected in the clinical results.

[2] = system: mice (CBA/C57BL6) F1; experiment: Acute toxicity of CP-88 in mice; format: in vivo; settings: male and female mice, intraperitoneally once, 0.2 mL per animal; doses 500, 1000 and 10,000 μg/kg
Method: This study of acute and chronic toxicity of CP-88 was conducted under the requirements of regulatory documents that regulate this study and are part of a complex of preclinical studies on acute and chronic toxicity that are required for the registration of drugs. Fifty-six male and fifty-six female mice, line (CBA/C57BL6) F1, were used for this study.
To determine acute toxicity, peptide was administered to male and female mice (CBA/C57BL6) F1 (56 male and 56 female mice). The animals were obtained from the Scientific and Production Enterprise “Stolbovaya” Laboratory Animal Nursery, Moscow Region, at the age of 4 weeks. Upon receipt, an external examination of the animal’s condition was conducted.
The drug was administered in the form of aqueous solutions intraperitoneally in doses of 500, 1000, and 10,000 μg/kg in a volume of 0.2 mL per mouse, which exceeded the effective doses of the drug by 50 to 1000 times. Animals of the same batch, injected with distilled water in a volume of 0.2 mL per animal (control substance), were used as a biological control.

[3] = Pharmacokinetics of Stemokin in mice using 3H-Stemokin; format: in vivo; settings: parenteral administration
Method: The additional goal of this study was to estimate Stemokin’s pharmacokinetics using 3H-Stemokin.
The main radioactivity was accumulated in the bone marrow. This exceptional tropism to bone marrow could explain its significant hemostimulating activity (Table 4 and Table 5, line 3 underlying the extraordinary tropism of Stemokin to Bone marrow tissue).
Pharmacokinetics of Stemokin With parenteral administration of the drug, a Cmax in the blood was achieved after 5 min […]. A Cmax was observed 30–40 min after administration in bone marrow, liver, kidneys, and lymph nodes. The drug’s T1/2 is 24 h and is eliminated from the body within 72 h. The pharmacokinetics of Stemokin was studied using ^3H-Stemokin, obtained by thermal activation of gaseous tritium. 3H-Stemokin was administered intramuscularly to BDF1 female mice, and 72 h after a single dose, the levels of ^3H-radioactivity were determined in animal organs and tissues. The main amount of radioactivity, ~80%, was excreted within 24 h after administration of ^3H-Stemokin and was less than 5% of the administered dose (Table 4 and Table 5).

[4] = cited from earlier work
From the text: Several cyclopeptides (A1–A5) indicated stimulatory hematopoietic activity sustained in invasive and oral administration.

## CC[C@H](C)[C@H](NC(=O)CC[C@@H]1NC(=O)[C@H](CCC(=O)N[C@@H](Cc2c[nH]c3ccccc23)C(=O)O)NC1=O)C(=O)O [CP-88, Cyclo-[Glu(Ile)-Glu(Trp)]]
[1]
  practically safe dose in humans with a single and course administration: up to 100 μg/kg
[2]
  acute toxicity: doses with no toxic effects: up to 10,000 µg/kg

## CC[C@H](C)[C@H](N)C(=O)N[C@@H](CCC(=O)O)C(=O)N[C@@H](Cc1c[nH]c2ccccc12)C(=O)O [Stemokin, Ile-Glu-Trp] (H-Ile-Glu-Trp-OH)
[3]
  T1/2: 24 h
  time to Cmax in bone marrow, liver, kidneys, and lymph nodes: 30 to 40 min
  time within which the drug is eliminated from the body: ≤ 72 h

## c[DAlaDGlu(DTrp)] [B1]
[4]
  immuno and hemosuppressive activity (in words): immuno and hemosuppressive activity

## c[DLysDGlu(DTrp)] [B5]
[4]
  immuno and hemosuppressive activity (in words): immuno and hemosuppressive activity

## c[DPheDGlu(DTrp)] [B6]
[4]
  immuno and hemosuppressive activity (in words): immuno and hemosuppressive activity

## c[DTyrDGlu(DTrp)] [B9]
[4]
  immuno and hemosuppressive activity (in words): immuno and hemosuppressive activity

## cyclo[L-Lys(N-acetyl-Glucosamine-N-acetyl-muramyl)-L-Glu(L-Trp)] [E1]
[4]
  adjuvant activity (in words): adjuvant activity

## cyclo[Lys(Palmitoyl)-Glu(D-Trp)] [E3]
[4]
  adjuvant activity (in words): adjuvant activity
